≈ marks a conversion by molar mass, not a printed value. Where two headings read alike, the source gives them in different places.
Columns and labels:
[1] = test system: Streptococcus faecalis 99 F 74; assay: MIC, liquid medium dilution; type: cell-based; conditions: Enterococcus faecalis
Procedure: (§1) The method used was a dilution of a liquid medium where a series of tubes received the same quantity of a sterile nutritive media and increasing doses of the test compounds were placed therein. Then each tube was seeded with a bacterial strain and was incubated for 24 or 48 hours at 37° C. in an oven. The increasing inhibition was determined by transillumination to determine the minimum inhibiting concentration (MIC in μg/ml) and the results are reported in the following Tables.

[2] = test system: Streptococcus pyogenes A 561; assay: MIC, liquid medium dilution; type: cell-based
Procedure: as §1

[3] = test system: Proteus vulgaris (indol+) A 232; assay: MIC, liquid medium dilution; type: cell-based
Procedure: as §1

[4] = test system: Staphylococcus aureus ATCC 6 538 Pen-Sensitive; assay: MIC, liquid medium dilution; type: cell-based
Procedure: as §1

[5] = test system: Serratia Resistant Gentamicine 2 532; assay: MIC, liquid medium dilution; type: cell-based
Procedure: as §1

[6] = test system: Klebsiella pneumoniae 2 536 Resistant Gentamicine; assay: MIC, liquid medium dilution; type: cell-based
Procedure: as §1

[7] = test system: Escherichia Coli Resistant Gentamicine, Tobramycine R 55 123 D; assay: MIC, liquid medium dilution; type: cell-based
Procedure: as §1

[8] = test system: Escherichia Coli Exp. TO26 B6; assay: MIC, liquid medium dilution; type: cell-based
Procedure: as §1

[9] = test system: Bacillus subtilis ATCC 6 633; assay: MIC, liquid medium dilution; type: cell-based
Procedure: as §1

[10] = test system: Escherichia Coli Resistant Tetracycline ATCC 11 303; assay: MIC, liquid medium dilution; type: cell-based
Procedure: as §1

[11] = test system: Proteus mirabilis (indol-) A 235; assay: MIC, liquid medium dilution; type: cell-based
Procedure: as §1

Providencia Du 48 = assay: MIC, liquid medium dilution; type: cell-based
Procedure: as §1

[12] = test system: Escherichia Coli Sensitive Tetracycline ATCC 9 637; assay: MIC, liquid medium dilution; type: cell-based
Procedure: as §1

[13] = test system: Klebsiella pneumoniae Exp. 52 145; assay: MIC, liquid medium dilution; type: cell-based
Procedure: as §1

[14] = test system: Salmonella typhimurium 420; assay: MIC, liquid medium dilution; type: cell-based; conditions: Salmonella enterica
Procedure: as §1

[15] = test system: Staphylococcus aureus UC 1 128 Pen-Resistant; assay: MIC, liquid medium dilution; type: cell-based
Procedure: as §1

[16] = test system: Streptococcus faecalis 5 432; assay: MIC, liquid medium dilution; type: cell-based
Procedure: as §1

[17] = test system: Staphylococcus aureus exp. n° 54 146; assay: MIC, liquid medium dilution; type: cell-based
Procedure: as §1

Enterobacter cloacae 681 = assay: MIC, liquid medium dilution; type: cell-based
Procedure: as §1

[18] = test system: Klebsiella pneumonia 52,145; assay: Experimental infection with Klebsiella pneumonia in mice (D); type: in vivo
Procedure: The activity of the products of Examples 19 and 21 was studied on an experimental infection of Klebsiella pneumonia in mice. Groups of 10 male mice weighing 21.5 g received intraperitoneally 0.5 ml of a 24 hour culture in nutritive media of Klebsiella pneumonia 52,145 diluted by 1/1000 with distilled water. The products were administered subcutaneously 1,5 and 24 hours after the injection and the number of dead mice were determined using 10th days.

[19] = Enterococcus faecalis, 5432, 24 h
[20] = Enterococcus faecalis, 5432, 48 h

For `CO/N=C(/C(=O)NC1C(=O)N2C(C(=O)O)=C(C)CS[C@H]12)c1csc(N)n1` (some centres unmarked) [Example 15, 7-[{2-(2-amino-4-thiazolyl)-2-methoxyiminoacetyl}amino]-3-methyl-ceph-3-eme-4-carboxylic acid], the MIC ([1]; 99F74, 24 h) was greater than 100 µg/mL, the MIC ([1]; 99F74, 48 h) was greater than 100 µg/mL and the MIC ([2]; A561, 24 h) was 2 µg/mL (≈ 5.03 µM). For the same compound, the MIC ([2]; A561, 48 h) was 3 µg/mL (≈ 7.55 µM), the MIC ([3]; 24 h) was greater than 100 µg/mL and the MIC ([3]; 48 h) was greater than 100 µg/mL. It also gave an MIC ([4]; ATCC6, 24 h) greater than 100 µg/mL, an MIC ([4]; ATCC6, 48 h) greater than 100 µg/mL and an MIC ([5]; 24 h) greater than 100 µg/mL. The MIC ([5]; 48 h) was greater than 100 µg/mL, the MIC ([6]; 24 h) was greater than 100 µg/mL and the MIC ([6]; 48 h) was greater than 100 µg/mL. The MIC ([7]; 24 h) was greater than 100 µg/mL, the MIC ([7]; 48 h) was greater than 100 µg/mL and the MIC ([8]; 24 h) was greater than 100 µg/mL. For the same compound, the MIC ([8]; 48 h) was greater than 100 µg/mL, the MIC ([9]; ATCC6, 24 h) was greater than 100 µg/mL and the MIC ([9]; ATCC6, 48 h) was greater than 100 µg/mL. The MIC ([10]; ATCC11, 24 h) was greater than 100 µg/mL, the MIC ([10]; ATCC11, 48 h) was greater than 100 µg/mL and the MIC ([11]; 24 h, read-out: MIC) was 20 µg/mL (≈ 50.3 µM). The MIC ([11]; 48 h, read-out: MIC) was 40 µg/mL (≈ 101 µM), the MIC (Providencia Du 48; DU48, 24 h) was greater than 100 µg/mL and the MIC (Providencia Du 48; DU48, 48 h) was greater than 100 µg/mL. The MIC ([12]; ATCC9, 24 h) was greater than 100 µg/mL, the MIC ([12]; ATCC9, 48 h) was greater than 100 µg/mL and the MIC ([13]; EXP.52145, 24 h, read-out: MIC) was 100 µg/mL (≈ 252 µM). The MIC ([13]; EXP.52145, 48 h, read-out: MIC) was 100 µg/mL (≈ 252 µM), the MIC ([14]; 24 h) was greater than 100 µg/mL and the MIC ([14]; 48 h) was greater than 100 µg/mL. For the same compound, the MIC ([15]; UC1, 24 h) was greater than 100 µg/mL, the MIC ([15]; UC1, 48 h) was greater than 100 µg/mL and the MIC [16, 19] was greater than 100 µg/mL. The MIC [16, 20] was greater than 100 µg/mL, the MIC ([17]; 24 h) was greater than 100 µg/mL and the MIC ([17]; 48 h) was greater than 100 µg/mL.
In the case of `CO/N=C(/C(=O)NC1C(=O)N2C(C(=O)O)=C(CSC(C)=O)CSC12)c1csc(N)n1` (centres unmarked) [Example 17, 3-acetylthiomethyl-7-[{2-(2-amino-4-thiazolyl)-2-methoxyiminoacetyl}amino]-ceph-3-eme-4-carboxylic acid], the MIC ([1]; 99F74, 24 h) was greater than 100 µg/mL, the MIC ([1]; 99F74, 48 h) was greater than 100 µg/mL and the MIC ([2]; A561, 24 h) was 0.2 µg/mL (≈ 0.424 µM). The MIC ([2]; A561, 48 h) was 0.2 µg/mL (≈ 0.424 µM), the MIC ([3]; 24 h) was greater than 100 µg/mL and the MIC ([3]; 48 h) was greater than 100 µg/mL. It also gave an MIC ([4]; ATCC6, 24 h) of 20 µg/mL (≈ 42.4 µM), an MIC ([4]; ATCC6, 48 h) of 20 µg/mL (≈ 42.4 µM) and an MIC ([5]; 24 h) greater than 100 µg/mL. It also gave an MIC ([5]; 48 h) greater than 100 µg/mL, an MIC ([6]; 24 h) greater than 100 µg/mL and an MIC ([6]; 48 h) greater than 100 µg/mL. For the same compound, the MIC ([7]; 24 h) was 40 µg/mL (≈ 84.8 µM), the MIC ([7]; 48 h) was 40 µg/mL (≈ 84.8 µM) and the MIC ([8]; 24 h) was 20 µg/mL (≈ 42.4 µM). For the same compound, the MIC ([8]; 48 h) was 40 µg/mL (≈ 84.8 µM), the MIC ([9]; ATCC6, 24 h) was 5 µg/mL (≈ 10.6 µM) and the MIC ([9]; ATCC6, 48 h) was 20 µg/mL (≈ 42.4 µM). For the same compound, the MIC ([10]; ATCC11, 24 h) was 5 µg/mL (≈ 10.6 µM), the MIC ([10]; ATCC11, 48 h) was 5 µg/mL (≈ 10.6 µM) and the MIC ([11]; 24 h) was 5 µg/mL (≈ 10.6 µM). The MIC ([11]; 48 h) was 40 µg/mL (≈ 84.8 µM), the MIC (Providencia Du 48; DU48, 24 h) was greater than 100 µg/mL and the MIC (Providencia Du 48; DU48, 48 h) was greater than 100 µg/mL. For the same compound, the MIC (Enterobacter cloacae 681; Enterobacter cloacae, 681, 24 h) was 40 µg/mL (≈ 84.8 µM), the MIC (Enterobacter cloacae 681; Enterobacter cloacae, 681, 48 h) was 100 µg/mL (≈ 212 µM) and the MIC ([12]; ATCC9, 24 h) was 40 µg/mL (≈ 84.8 µM). It also gave an MIC ([12]; ATCC9, 48 h) of 40 µg/mL (≈ 84.8 µM), an MIC ([13]; EXP.52145, 24 h) of 40 µg/mL (≈ 84.8 µM) and an MIC ([13]; EXP.52145, 48 h) of 40 µg/mL (≈ 84.8 µM). It also gave an MIC ([14]; 24 h) of 40 µg/mL (≈ 84.8 µM), an MIC ([14]; 48 h) of 40 µg/mL (≈ 84.8 µM) and an MIC ([15]; UC1, 24 h) of 40 µg/mL (≈ 84.8 µM). The MIC ([15]; UC1, 48 h) was 100 µg/mL (≈ 212 µM), the MIC [16, 19] was greater than 100 µg/mL and the MIC [16, 20] was greater than 100 µg/mL. The MIC ([17]; 24 h) was 40 µg/mL (≈ 84.8 µM) and the MIC ([17]; 48 h) was 40 µg/mL (≈ 84.8 µM).
In the case of `CO/N=C(\C(=O)NC1C(=O)N2C(C(=O)O)=C(CSc3nnc(C)s3)CS[C@H]12)c1csc(N)n1` (some centres unmarked) [Example 19, sodium 7-[{2-(2-amino-4-thiazolyl)-2-methoxyiminoacetyl}amino]-3-[(2-methyl-1,3,4-thiadiazol-5-yl)-thiomethyl]-ceph-3-eme-4-carboxylate], the “Mice alive on the 10th day” value ([18]; subcutaneous, 0,1 mg) was 9/10, the “Mortality after 6eJ (number of dead of 10)” value ([18]; subcutaneous, 0,1 mg) was 1 and the “Mice alive on the 10th day” value ([18]; subcutaneous, 0,05 mg) was 6/10. For the same compound, the “Mortality after 4eJ (number of dead of 10)” value ([18]; subcutaneous, 0,05 mg) was 1, the “Mortality after 5eJ (number of dead of 10)” value ([18]; subcutaneous, 0,05 mg) was 2 and the “Mortality after 7eJ (number of dead of 10)” value ([18]; subcutaneous, 0,05 mg) was 1. The “Mice alive on the 10th day” value ([18]; subcutaneous, 0,5 mg) was 10/10, the “Mice alive on the 10th day” value ([18]; subcutaneous, 0,25 mg) was 10/10 and the “Mice alive on the 10th day” value ([18]; subcutaneous, 1 mg) was 10/10.
